Experiments:
[1] = molecular target: JAK3 (Homo sapiens (Human), UniProt P52333); experiment: Jak Biochemical HTRF Assay (JAK3); settings: recombinant GST-tagged catalytic domain, [ATP] 2.9 μM
Procedure: (§1) Biological Assays Jak Biochemical HTRF Assay Protocol
The ability of compounds to inhibit the activity of JAK1, JAK2, JAK3, and Tyk2 was measured using a recombinant purified GST-tagged catalytic domain for each enzyme (Invitrogen JAK1 #M4290, JAK2 #M4290, JAK3 #M4290, Tyk2 #M4290) in an HTRF format biochemical assay. […] Subsequent reagent additions employed an Agilent Bravo. […] After equilibration, 2 μL of 10×ATP in 1× assay buffer was added to initiate the kinase reaction and the plates were shaken and then incubated at room temperature for 120 minutes. At the end of the incubation, 20 μL of 2× stop buffer (streptavidin-Dylight 650 (Thermo #84547B100 mL), Eu-tagged pY20 antibody (Perkin Elmer #AD0067), EDTA, HEPES, and Triton) was added to quench the reaction. […] After normalization to untreated controls, the percent inhibition of the HTRF signal at each compound concentration was calculated. The plot of percent inhibition versus the log of compound concentration was fit with a 4-parameter dose response equation to calculate IC50 values.

[2] = molecular target: JAK2 (Homo sapiens (Human), UniProt O60674); experiment: Jak Biochemical HTRF Assay (JAK2); settings: recombinant GST-tagged catalytic domain, [ATP] 8.5 μM
JAK2, sequence (O60674 849-1124): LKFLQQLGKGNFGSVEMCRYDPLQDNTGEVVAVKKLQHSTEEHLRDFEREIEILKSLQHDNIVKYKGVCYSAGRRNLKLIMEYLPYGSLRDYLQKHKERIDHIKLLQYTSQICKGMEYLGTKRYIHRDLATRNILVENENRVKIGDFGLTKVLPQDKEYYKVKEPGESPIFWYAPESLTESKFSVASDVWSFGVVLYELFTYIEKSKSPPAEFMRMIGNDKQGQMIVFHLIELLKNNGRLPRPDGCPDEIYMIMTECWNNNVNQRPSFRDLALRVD
Procedure: as §1
The ability of compounds to inhibit the activity of JAK1, JAK2, JAK3, and Tyk2 was measured using a recombinant purified GST-tagged catalytic domain for each enzyme (Invitrogen JAK1 #M4290, JAK2 #M4290, JAK3 #M4290, Tyk2 #M4290) in an HTRF format biochemical assay. […] The basic assay protocol is as follows: First, 250 nL of diluted compounds in DMSO were dispensed into the wells of a dry 384-well Black plate (Greiner #781076) using a Labcyte Echo 555 acoustic dispenser. Subsequent reagent additions employed an Agilent Bravo. Next, 18 μL of 1.11× enzyme and 1.11× substrate in 1× assay buffer (Invitrogen kinase buffer # PV3189, 2 mM DTT, 0.05% BSA) were added to the wells and shaken and then preincubated for 30 minutes at room temperature to allow compound binding to equilibrate. After equilibration, 2 μL of 10×ATP in 1× assay buffer was added to initiate the kinase reaction and the plates were shaken and then incubated at room temperature for 120 minutes. At the end of the incubation, 20 μL of 2× stop buffer (streptavidin-Dylight 650 (Thermo #84547B100 mL), Eu-tagged pY20 antibody (Perkin Elmer #AD0067), EDTA, HEPES, and Triton) was added to quench the reaction. Plates were shaken and centrifuged and then incubated 60 minutes at room temperature and then read on a Perkin Elmer Envision (λex=337 nm, λem=665 and 615 nm, TRF delay time=20 μs). HTRF signal=10,000*665 nm reading 615 nm reading. After normalization to untreated controls, the percent inhibition of the HTRF signal at each compound concentration was calculated. The plot of percent inhibition versus the log of compound concentration was fit with a 4-parameter dose response equation to calculate IC50 values.

JAK3, sequence (P52333 822-1111): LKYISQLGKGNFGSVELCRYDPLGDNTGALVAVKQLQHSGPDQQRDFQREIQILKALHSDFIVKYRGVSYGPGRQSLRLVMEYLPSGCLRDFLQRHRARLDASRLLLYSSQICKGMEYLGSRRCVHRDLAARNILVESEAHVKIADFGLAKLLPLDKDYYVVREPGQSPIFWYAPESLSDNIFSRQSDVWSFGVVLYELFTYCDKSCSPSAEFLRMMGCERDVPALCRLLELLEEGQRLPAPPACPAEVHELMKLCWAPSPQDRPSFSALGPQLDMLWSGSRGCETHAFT

IC50 ([1]; given as range class) | IC50 ([2]; given as range class) | IC50 [1] | IC50 [2] | SMILES
10 to 500 nM | 10 to 500 nM |  |  | CCOC(=O)c1c[nH]c2ncnc(-c3ccsc3)c12 [Example 1-57, ethyl 4-thiophen-3-yl-7H-pyrrolo[2,3-d]pyrimidine-5-carboxylate]
 |  | 1.5 nM | > 1500 nM | C=C(C)C(=O)Nc1cccc(-c2ncnc3[nH]cc(-c4cccc(F)c4Cl)c23)c1 [Example 20-5, N-{3-[5-(2-chloro-3-fluorophenyl)-7H-pyrrolo[2,3-d]pyrimidin-4-yl]phenyl}-2-methylprop-2-enamide]
 |  | 0.033 nM | > 1500 nM | C=CC(=O)Nc1cc(-c2ncnc3[nH]cc(C(=O)OCC)c23)ccc1C [Example 4-11, ethyl 4-[3-(acryloylamino)-4-methylphenyl]-7H-pyrrolo[2,3-d]pyrimidine-5-carboxylate]
 |  | 1.5 nM | 35 nM | CCOC(=O)c1c[nH]c2ncnc(-c3ccc4[nH]ccc4c3)c12 [Example 1-53, ethyl 4-(1H-indol-5-yl)-7H-pyrrolo[2,3-d]pyrimidine-5-carboxylate]
 |  | 6.9 nM | > 1500 nM | COc1ccccc1-c1c[nH]c2ncnc(-c3ccc4cn(C)nc4c3)c12 [Example 33-2, 5-(2-methoxyphenyl)-4-(2-methyl-2H-indazol-6-yl)-7H-pyrrolo[2,3-d]pyrimidine]
 |  | 0.17 nM | > 1500 nM | C=C(C)C(=O)Nc1cccc(-c2ncnc3[nH]cc(-c4cccc(C)c4)c23)c1 [Example 20-1, 2-Methyl-N-{3-[5-(3-methylphenyl)-7H-pyrrolo[2,3-d]pyrimidin-4-yl]phenyl}prop-2-enamide]
10 to 500 nM | > 500 nM |  |  | CCOC(=O)c1c[nH]c2ncnc(-c3ccc4c(c3)CN(C(=O)OC(C)(C)C)CCO4)c12 [Example 1-79, tent-butyl 7-[5-(ethoxycarbonyl)-7H-pyrrolo[2,3-d]pyrimidin-4-yl]-2,3-dihydro-1,4-benzoxazepine-4(5H)-carboxylate]
 |  | 0.11 nM | > 1500 nM | C=C(C)C(=O)Nc1cc(-c2ncnc3[nH]cc(C(=O)OCC)c23)ccc1O [Example 4-31, ethyl 4-{4-hydroxy-3-[(2-methylacryloyl)amino]phenyl}-7H-pyrrolo[2,3-d]pyrimidine-5-carboxylate]
 |  | 0.4 nM | > 1500 nM | C=C(C)C(=O)Nc1cc(-c2ncnc3[nH]cc(C(=O)OC)c23)ccc1F [Example 11-1, Methyl 4-{4-fluoro-3-[(2-methylacryloyl)amino]phenyl}-7H-pyrrolo[2,3-d]pyrimidine-5-carboxylate]
10 to 500 nM | > 500 nM |  |  | C=C(C)C(=O)Nc1cccc(-c2ncnc3[nH]cc(-c4nc(C)co4)c23)c1 [Example 29, N-(3-(5-(4-Methyloxazol-2-yl)-7H-pyrrolo[2,3-d]pyrimidin-4-yl)phenyl)methacrylamide]
 |  | 6 nM | 62 nM | CCOC(=O)c1c[nH]c2ncnc(C3=CCCCC3)c12 [Example 1-23, ethyl 4-cyclohex-1-en-1-yl-7H-pyrrolo[2,3-d]pyrimidine-5-carboxylate]
 |  | 0.11 nM | > 1500 nM | C=C(C)C(=O)Nc1ccc(F)c(-c2ncnc3[nH]cc(C(=O)OCC)c23)c1 [Example 4-18, ethyl 4-{2-fluoro-5-[(2-methylacryloyl)amino]phenyl}-7H-pyrrolo[2,3-d]pyrimidine-5-carboxylate]
 |  | 4.2 nM | 47 nM | CCOC(=O)c1c[nH]c2ncnc(-c3ccc(-c4ccccc4)cc3)c12 [Example 1-44, ethyl 4-biphenyl-4-yl-7H-pyrrolo[2,3-d]pyrimidine-5-carboxylate]
 |  | 3.4 nM | 183 nM | COc1ccccc1-c1c[nH]c2ncnc(-c3ccccc3)c12 [Example 33-1, 5-(2-Methoxyphenyl)-4-phenyl-7H-pyrrolo[2,3-d]pyrimidine]
10 to 500 nM | > 500 nM |  |  | CCOC(=O)c1c[nH]c2ncnc(-c3cccc(NC(=O)/C=C/c4ccc(C(F)(F)F)cc4)c3)c12 [Example 5-44, ethyl 4-[3-({(2E)-3-[4-(trifluoromethyl)phenyl]prop-2-enoyl}amino)phenyl]-7H-pyrrolo[2,3-d]pyrimidine-5-carboxylate]
 |  | 9.7 nM | > 1500 nM | C=C(C)C(=O)Nc1cccc(-c2ncnc3[nH]cc(-c4cccnc4)c23)c1 [Example 21-4, N-(3-(5-(pyridin-3-yl)-7H-pyrrolo[2,3-d]pyrimidin-4-yl)phenyl)methacrylamide]
10 to 500 nM | > 500 nM |  |  | CCOC(=O)c1c[nH]c2ncnc(-c3cnn(CCOC)c3)c12 [Example 1-99, ethyl 4-[1-(2-methoxyethyl)-1H-pyrazol-4-yl]-7H-pyrrolo[2,3-d]pyrimidine-5-carboxylate]
10 to 500 nM | > 500 nM |  |  | C=C(C)C(=O)Nc1cccc(-c2ncnc3[nH]cc(-c4ccccn4)c23)c1 [Example 21-1, N-(3-(5-(Pyridin-2-yl)-7H-pyrrolo[2,3-d]pyrimidin-4-yl)phenyl)methacrylamide]
 |  | 0.59 nM | > 1500 nM | C=C(C)C(=O)Nc1cccc(-c2ncnc3[nH]cc(-c4cccc(F)c4)c23)c1 [Example 20-2, N-{3-[5-(3-fluorophenyl)-7H-pyrrolo[2,3-d]pyrimidin-4-yl]phenyl}-2-methylprop-2-enamide]
 |  | 1.5 nM | > 1500 nM | C=C(C)C(=O)Nc1cccc(-c2ncnc3[nH]cc(-c4ccc(F)cc4)c23)c1 [Example 20-4, N-{3-[5-(4-fluorophenyl)-7H-pyrrolo[2,3-d]pyrimidin-4-yl]phenyl}-2-methylprop-2-enamide]
 |  | 5.4 nM | > 1500 nM | C=C(C)C(=O)Nc1cccc(-c2ncnc3[nH]cc(-c4ccc(C)cc4)c23)c1 [Example 20-7, 2-methyl-N-{3-[5-(4-methylphenyl)-7H-pyrrolo[2,3-d]pyrimidin-4-yl]phenyl}prop-2-enamide]
 |  | 5.3 nM | > 1500 nM | CCOC(=O)c1c[nH]c2ncnc(-c3cccc(NC(=O)/C=C/C(C)=O)c3)c12 [Example 5-14, ethyl 4-(3-{[(2E)-4-oxopent-2-enoyl]amino}phenyl)-7H-pyrrolo[2,3-d]pyrimidine-5-carboxylate]
 |  | 0.11 nM | > 1500 nM | C=CC(=O)Nc1cc(-c2ncnc3[nH]cc(C(=O)OCC)c23)ccc1OC [Example 4-15, ethyl 4-[3-(acryloylamino)-4-methoxyphenyl]-7H-pyrrolo[2,3-d]pyrimidine-5-carboxylate]
 |  | 8.3 nM |  | CCOC(=O)c1c[nH]c2ncnc(-c3ccc(CO)c(N)c3)c12 [Example 1-32, ethyl 4-[3-amino-4-(hydroxymethyl)phenyl]-7H-pyrrolo[2,3-d]pyrimidine-5-carboxylate]
 |  | 8.4 nM |  | CCOC(=O)c1c[nH]c2ncnc(-c3cccc(Cl)c3)c12 [Example 1-39, ethyl 4-(3-chlorophenyl)-7H-pyrrolo[2,3-d]pyrimidine-5-carboxylate]
 |  | 8.1 nM |  | CCOC(=O)c1c[nH]c2ncnc(-c3ccc4c(F)n(C)nc4c3)c12 [Example 1-29, ethyl 4-(3-fluoro-2-methyl-2H-indazol-6-yl)-7H-pyrrolo[2,3-d]pyrimidine-5-carboxylate]
 |  | 3.3 nM |  | CCOC(=O)c1c[nH]c2ncnc(-c3cccc(OCc4ccccc4)c3)c12 [Example 1-52, ethyl 4-[3-(benzyloxy)phenyl]-7H-pyrrolo[2,3-d]pyrimidine-5-carboxylate]

SMILES | IC50 ([1]; given as range class) | IC50 ([2]; given as range class) | IC50 [1] | IC50 [2]
CCOC(=O)c1c[nH]c2ncnc(C3=CCN(C(=O)OC(C)(C)C)C3)c12 [Example 1-20, ethyl 4-[1-(tert-butoxycarbonyl)-2,5-dihydro-1H-pyrrol-3-yl]-7H-pyrrolo[2,3-d]pyrimidine-5-carboxylate] | 10 to 500 nM | > 500 nM |  | 
CCOC(=O)c1c[nH]c2ncnc(-c3ccc4c(c3)CN(C(=O)OC(C)(C)C)C4=O)c12 [Example 1-77, ethyl 4-[2-(tert-butoxycarbonyl)-1-oxo-2,3-dihydro-1H-isoindol-5-yl]-7H-pyrrolo[2,3-d]pyrimidine-5-carboxylate] | 10 to 500 nM | > 500 nM |  | 
